Source: patent EP3778613A1, “THIRD GENERATION DENDRIMER, PROCESS FOR PRODUCTION THEREOF AND USE THEREOF” (Consejo Superior de Investigaciones Científicas (CSIC), priority 2019, dated 2021)

What was measured:
[1] = Relaxometric measurements (r1, r2 relaxivity) by MRI at 7 T; conditions: 100 mM phosphate buffer pH 7.4, 300K
Procedure: Magnetic Resonance Imaging (MRI) experiments were carried out in a BioSpec 70/30 Bruker system using a 7.0 T horizontal-bore superconducting magnet equipped with actively shielded gradients (B-GA12 gradient coil inserted into a B-GA20S gradient system). A quadrature 72 mm inner diameter volume coil was used for in vitro studies.
Relaxometric measurements. Longitudinal (r1) and transverse (r2) relaxivities were determined per concentration of PROXYL units. […] The software used for the calculations of T1 and T2 relaxations was Paravision 6.0 (Bruker Software). r1 relaxivity. Series of axial T1-weighted (T1W) images were acquired for each concentration of PROXYL to obtain T1 maps based on a magnetization saturation experiment and the following parameters: repetition time (TR) = 70-6000 ms, echo time (TE) = 9.2 ms, field of view (FOV) = 2.5 x 2.5 cm, averages (Av) = 1, acquisition matrix (Mtx) = 128 x 128. The T1 values were calculated from the mean signal in the region of interest (ROI) for each repetition time, adjusted to the equation: S = S0 [1 - […]]. r2 relaxivity. T2 maps were calculated from multi spin echo images with a TR of 2 s. 25 echo images were acquired with a TE of 8.02 ms, which was the interval time between echo images acquisitions, too. […] The T2 values were calculated from mean signal in the ROI for each echo image, adjusted according to the equation: S = S0 […]]. […]

[2] = Kinetics of reduction of PROXYL with ascorbate, followed by EPR; assay type: physicochemical; conditions: nitroxide reduction with sodium ascorbate (10-fold excess per PROXYL unit), 100 mM PB pH 7.4, 300 K
Source text: Electronic Paramagnetic Resonance Spectroscopy (EPR) spectra were obtained with an X-Band (9.4 GHz) Bruker ELEXSYS 500 spectrometer equipped with a TE102 microwave cavity, a Bruker variable temperature unit, a field frequency lock system Bruker ER 033 M and equipped with a NMR Gaussmeter Bruker ER 035 M. The modulation amplitude was kept well below the line width, and the microwave power was well below saturation. All samples were previously degassed with Ar. Experiments in aqueous phase were carried out with a quartz flat cell.
Kinetics of reduction of PROXYL with ascorbate. All the solutions were freshly prepared in 100 mM phosphate buffer, pH 7.4. […]
The effect of the dendritic scaffold on nitroxyl rate of reduction was investigated under pseudo-first-order conditions, using a 10-fold excess of sodium ascorbate per PROXYL unit in 100 mM PB pH 7.4 at 300 K. The reduction was monitored by EPR spectroscopy following the decrease of the area under the spectra as a function of time (Figure 4a). As reference, the rate of reduction of 3-carboxy-PROXYL was determined under identical conditions. […] Rate constants were determined by EPR spectroscopy following the decrease of the area under the spectra as a function of time.

[3] = r.t. 7T, reference value for the clinical Gd contrast agent; cited from earlier work

SMILES: CC1(C)CC(C(=O)O)C(C)(C)N1[O] (stereo not shown) [3-carboxy PROXYL, 3-carboxy-PROXYL]
- r1^7T ([1]; longitudinal relaxivity per unit of nitroxyl radical): 0.20 ± 0.014 mM⁻¹ s⁻¹
- r2^7T ([1]; transverse relaxivity per unit of nitroxyl radical): 0.23 ± 0.06 mM⁻¹ s⁻¹
- Initial stage k (M^-1s^-1) x 10^3 [2]: 11.2 M^-1s^-1 x 10^3

SMILES: O=C([O-])CN(CCN(CC(=O)[O-])CC(=O)O)CCN(CC(=O)[O-])CC(=O)O.[Gd+3] [Gd-DTPA]
- relaxivity [3]: 3.2 s⁻¹ mM⁻¹
